Source: PubChem BioAssay (NCI)
“And” between values parts separate entries of the source, which are not always exact repeats. Equal values may be shown once.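 Cultured in 96-well plates, cells were exposed to test compound for 48 hours across five concentrations. At the GI50, growth is halved. TGI denotes the concentration required for complete inhibition of growth.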

Tests used:
Test in all cases: NCI anticancer screen, dose series, 48 h
OVCAR-4 ovarian = test system: OVCAR-4 ovarian
HCC-2998 colon = test system: HCC-2998 colon
SK-MEL-5 melanoma = test system: SK-MEL-5 melanoma
TK-10 renal = test system: TK-10 renal
SF-539 CNS = test system: SF-539 CNS
HOP-62 NSCLC = test system: HOP-62 NSCLC
A498 renal = test system: A498 renal
SK-MEL-2 melanoma = test system: SK-MEL-2 melanoma
OVCAR-5 ovarian = test system: OVCAR-5 ovarian
CCRF-CEM leukemia = test system: CCRF-CEM leukemia

| SMILES | GI50 (OVCAR-4 ovarian) | TGI (OVCAR-4 ovarian) [µM] | GI50 (HCC-2998 colon) | TGI (HCC-2998 colon) | GI50 (SK-MEL-5 melanoma) | TGI (SK-MEL-5 melanoma) [µM] | GI50 (TK-10 renal) [µM] | TGI (TK-10 renal) [µM] | GI50 (SF-539 CNS) [µM] | TGI (SF-539 CNS) [µM] | GI50 (HOP-62 NSCLC) [µM] | TGI (HOP-62 NSCLC) [µM] | GI50 (A498 renal) [µM] | TGI (A498 renal) [µM] | GI50 (SK-MEL-2 melanoma) [µM] | TGI (SK-MEL-2 melanoma) [µM] | GI50 (OVCAR-5 ovarian) [µM] | TGI (OVCAR-5 ovarian) [µM] | GI50 (CCRF-CEM leukemia) [µM] | TGI (CCRF-CEM leukemia) [µM] |
| --- | --- | --- | --- | --- | --- | --- | --- | --- | --- | --- | --- | --- | --- | --- | --- | --- | --- | --- | --- | --- |
| C[C@@H](Oc1cc(-n2cnc3ccc(OC[C@@H](O)CO)cc32)sc1C(N)=O)c1ccccc1Cl | 4.15 µM | > 25 | 0.0848 µM | > 25 µM | 0.326 µM | 5.14 | 0.894 | 10.7 | 0.133 | > 25 | 0.11 | > 25 | 0.148 | 1.2 | 4.76 | 11.1 | 0.414 | > 25 | 0.0127 | 24.6 |
| Cc1ccc(S(=O)(=O)Nc2ccc(-c3cc(-c4cccc(F)c4)c(C#N)c(N)n3)cc2)cc1 | 1.77 µM | 3.67 | 1.72 µM | 3.28 µM | 1.77 µM | 3.23 | 1.66 | 3.17 | 1.56 | 3.02 | 4.25 | 17.2 | 3.7 | 16.2 | 1.96 | 4.22 | 1.73 | 3.46 | 2.26 | 30.8 |
| CCCCCCCCCCCCCB(O)O | > 100 µM and 49.3 µM | > 100 | > 100 µM and 32 µM | > 100 µM and 84.7 µM | > 100 µM and 45.4 µM | > 100 | – | > 100 | – | > 100 | – | > 100 | – | > 100 | – | > 100 | – | > 100 | – | > 100 |
| COC(=O)C(/C(=N\NC(N)=S)C(=O)Nc1ccccc1[N+](=O)[O-])c1cnc2ccccc2n1 (stereo not drawn) | – | > 100 | – | > 100 µM | – | > 100 | – | > 100 | – | > 100 | – | > 100 | – | > 100 | – | > 100 | – | > 100 | – | > 100 |
| Cc1cc(=O)oc2cc(OC/C=C3\CCC(=O)O3)ccc12 | 15.8 µM | 37.4 | 16 µM | 31.4 µM | 17.6 µM | 37 | 12.2 | 27.2 | 13.1 | 46.1 | 21.6 | 58 | 28.7 | 79.4 | 17.9 | 60.2 | 17.1 | 36.4 | 3.96 | 30.3 |
| Nc1ncnc2c1ccn2[C@@H]1O[C@H]([C@H](O)c2ccc(Cl)c(F)c2)[C@@H](O)[C@H]1O | > 100 µM | > 100 | > 100 µM | > 100 µM | 92.6 µM | > 100 | > 100 | > 100 | > 100 | > 100 | > 100 | > 100 | 52.4 | > 100 | > 100 | > 100 | > 100 | > 100 | > 100 | > 100 |
| FC(F)(F)c1cc(Nc2ccc3cc(OCCCN4CCOCC4)ccc3n2)ccc1Cl | 2.54 µM | 12.8 | 1.74 µM | 3.38 µM | 1.64 µM | 3.16 | 2.64 | 5.86 | 1.75 | 3.73 | 1.87 | 3.63 | 1.47 | 6.27 | 1.99 | 3.88 | 2.21 | 5.84 | 2.03 | 9.18 |
| O=C(/C=C/OC(=O)c1cccc(Cl)c1)c1ccc(Cl)cc1 | > 72.5 µM | > 100 | 29.3 µM | > 100 µM | 55.2 µM | > 100 | 32.7 | > 100 | 23.1 | 55.2 | > 100 | > 100 | > 40.3 | 96.9 | > 73.1 | > 100 | > 100 | > 100 | 37.5 | > 100 |
| O=C(O)Cc1cccc2c(=O)c3cccc([N+](=O)[O-])c3oc12 | – | > 100 | – | > 100 µM | – | > 100 | – | > 100 | – | > 100 | – | > 100 | – | > 100 | – | > 100 | – | > 100 | – | > 100 |
| Cc1ccccc1C1CC(c2ccccc2)=NO1 (stereo not drawn) | – | > 100 | – | > 100 µM | – | > 100 | – | > 100 | – | > 100 | – | > 100 | – | > 100 | – | > 100 | – | > 100 | – | > 100 |
| C[CH2][Sn]([CH2]C)([O]C(=O)c1ccc(OC)c(OC)c1OC)[O]C(=O)c1ccc(OC)c(OC)c1OC | > 82.6 µM | > 100 | > 100 µM | > 100 µM | 99.2 µM | > 100 | 52.6 | > 68.2 | 44.3 | > 71.8 | > 100 | > 100 | 16.3 | 44 | 28.7 | 81.7 | > 85.4 | > 100 | 13.9 | 56.8 |
